The source of these data is US8778963B2, “Hydroxylamine and oxime substituted imidazoquinolines, imidazopyridines, and imidazonaphthyridines” (3M Innovative Properties Company, priority 2003, dated 2014).

As usually defined, the melting point is the temperature, or range, at which the solid turns liquid.

For `CCOCc1nc2c(N)nc3ccccc3c2n1C/C(CC)=N/OC` [Example 48, 1-[4-Amino-2-(ethoxymethyl)-1H-imidazo[4,5-c]quinolin-1-yl]butan-2-one O-methyloxime], the melting point lay in the range of 175 to 178 °C.

On to `CON=C(C)CCCn1c(C)nc2c(N)nc3ccccc3c21` [Example 32, 5-(4-Amino-2-methyl-1H-imidazo[4,5-c]quinolin-1-yl)pentan-2-one O-methyloxime], for which the melting point was in the range of 158 to 161 °C.

`CCCc1nc2c(N)nc3c(c2n1CCCCN(O)C(=O)NC(C)C)CCCC3` [Example 50, N-[4-(4-Amino-2-propyl-6,7,8,9-tetrahydro-1H-imidazo[4,5-c]quinolin-1-yl)butyl]-N-hydroxy-N′-isopropylurea] registered a melting point of 178 to 180 °C.

In turn, `CCCc1nc2c(N)nc(C)c(C)c2n1CCCCN(OC)C(=O)OC(C)(C)C` [Example 26, N-[4-(4-Amino-6,7-dimethyl-2-propyl-1H-imidazo[4,5-c]pyridin-1-yl)butyl]-N-[tert-butyl-carbamate]-O-methylhydroxylamine] had a melting point of 127 to 128 °C.

With `CCc1nc2c(N)nc3ccccc3c2n1CCCNOC` [Example 51, N-[3-(4-Amino-2-ethyl-1H-imidazo[4,5-c]quinolin-1-yl)propyl]-O-methylhydroxylamine], the melting point was 210 to 213 °C.

With `CCCCc1nc2c(N)nc3ccccc3c2n1CCC/C=N/OC` [Example 42, (1E,Z)-4-(4-amino-2-butyl-1H-imidazo[4,5-c]quinolin-1-yl)butanal O-methyloxime], the melting point is 153 to 155 °C.

`CCCc1nc2c(N)nc3cccnc3c2n1CCCCN(OC)C(=O)Nc1ccccc1` [Example 19, N-[4-(4-Amino-2-propyl-1H-imidazo[4,5-c][1,5]naphthyridin-1-yl)butyl]-N-methoxy-N′-phenylurea] came in with a melting point of 155 to 156 °C.

Take `CCCc1nc2c(N)nc3ccccc3c2n1CCCC(C)N(OC)C(=O)NCC` (stereo not drawn) [Example 12, 1-[4-(4-Amino-2-propyl-1H-imidazo[4,5-c]quinolin-1-yl)-1-methylbutyl]-3-ethyl-1-methoxyurea]: the melting point lay within 193 to 194 °C.

The molecule `CC(CCCn1c(C)nc2c(N)nc3ccccc3c21)=NO` [Example 30, 5-(4-Amino-2-methyl-1H-imidazo[4,5-c]quinolin-1-yl)pentan-2-one oxime] gave a melting point of 264 to 266 °C.

In turn, `CCOCc1nc2c(N)nc3cccnc3c2n1CCCCN(OC)C(C)=O` [Example 20, N-[4-(4-amino-2-ethoxymethyl-1H-imidazo[4,5-c][1,5]naphthyridin-1-yl)butyl]-N-Methoxyacetamide] showed a melting point of 180 to 181 °C.

In turn, `CC(CCCn1c(C)nc2c(N)nc3ccccc3c21)=NOCc1ccccc1` [Example 31, 5-(4-Amino-2-methyl-1H-imidazo[4,5-c]quinolin-1-yl)pentan-2-one O-benzyloxime] gave a melting point of 146 to 148 °C.

In turn, `CCCCc1nc2c(N)nc3ccccc3c2n1CCCC(=NO)c1ccccc1` [Example 28, 4-(4-Amino-2-butyl-1H-imidazo[4,5-c]quinolin-1-yl)-1-phenylbutan-1-one oxime] had a melting point of 242 to 244 °C.

Turning to `CCCc1nc2c(N)nc3ccccc3c2n1CCCCN(O)C(=O)NC(C)C` [Example 44, N-[4-(4-Amino-2-propyl-1H-imidazo[4,5-c]quinolin-1-yl)butyl]-N-hydroxy-N′-isopropylurea], the melting point fell in the range of 158 to 160 °C.

Turning to `CON=C(C)CC(C)(C)Cn1c(C)nc2c(N)nc3ccccc3c21` [Example 39, 5-(4-Amino-2-methyl-1H-imidazo[4,5-c]quinolin-1-yl)-4,4-dimethylpentan-2-one O-methyl-oxime], the melting point was 193 to 195 °C.

For `CCOCc1nc2c(N)nc3cccnc3c2n1CCCCN(OC)C(=O)NC(C)C` [Example 21, 1-[4-(4-Amino-2-ethoxymethyl-1H-imidazo[4,5-c][1,5]naphthyridin-1-yl)butyl]-3-isopropyl-1-methoxyurea], the melting point fell in the range of 146 to 147 °C.
